For one series, the system named is Leishmania donovani. Briefly: Antileishmanial assay, Leishmania in infected macrophages (L. donovani). As to conditions: Leishmania donovani, Macrophage, read-out: IC50 Leishmania in infected macrophages.
The test system of series [1] is leishmaniasis (LV82 PM infection), liver parasitemia. Briefly: In vivo efficacy: liver parasitemia in BALB/c mice with leishmaniasis. Conditions: 10 mg/kg i.p. The procedure: The following protocols were used to prepare the various treatments described in Table 2: • a. Miltefosine ([…] stock solution in sterile PBS): 7.5 mg miltefosine was weighed and put in a eppendorf tube, then 0.75 mL of sterile PBS was added. After vortexing, a clear solution was formed. Make 1 mg/mL solution daily by diluting 100 μL of 10 mg/mL miltefosine solution in 900 μL sterile PBS. • b. Vehicle control: 5% (v/v) DMSO, 50% (v/v) PEG 400, 10% (v/v) Ethanol, and 35% (v/v) distilled water. • c. Compound 47 (2 mg/mL solution of compound 47 in PEG 400/Ethanol vehicle): […]. Dilute the above solution 1:20 with PEG 400/EtOH/water daily. After vortexing and warming up at 37° C. for 30 min., a clear solution formed. • d. Compound 48 (2 mg/mL solution of compound 48 in PEG 400/Ethanol vehicle): 6.8 mg of compound 48 was dissolved in 0.17 mL of DMSO to make a 40 mg/mL stock solution. After vortexing, a yellowish-brown solution was formed. Diluted the above solution 1:20 with PEG 400/EtOH/water daily. After vortexing a clear solution formed. • e. Compound 50 (2 mg/mL solution of compound 50 in PEG 400/Ethanol vehicle): 8.4 mg of compound 50 was dissolved in 0.21 mL of DMSO to make a 40 mg/mL stock solution. After vortexing, a dark yellowish-brown solution was formed. Diluted the above solution 1:20 with PEG 400/EtOH/water. After vortexing a clear solution formed.
(§1) Compounds 47, 48, and 50 were then evaluated in animal studies with BALB/c mice with leishmaniasis. Compounds were delivered via i.p. injection at 10 mg/kg, with untreated, vehicle, and miltefosine controls as described in Table 2. […] Miltefosine, the only oral treatment currently available to treat leishmaniasis in humans, was also evaluated in the BALB/c mice for comparison purposes.

Series [2] can be described thus: Body and organ weights of infected, treated BALB/c mice. The class given is in vivo. The procedure: as §1

28 compounds from patent US20130261133A1, “Therapeutic Compounds for Protozoal and Microbial Infections and Cancer” (THE UNIVERSITY OF MONTANA, priority 2012, published 2013) can be followed below.

Where “and” joins values, the source holds several entries; their conditions need not be identical. Identical values can stand only once.

Broadly, the IC50 is the concentration needed to halve the response being measured. As to `C=C[C@@H](C#CC#C[C@@H](CCCCCCCCC)N=C=S)OC(C)=O` [Compound 71, (3S,8R)-8-isothiocyanatoheptadeca-1-en-4,6-diyn-3-yl acetate], the IC50 in the series with Leishmania donovani was 21600 nM.
The same measure, in the same setting: as for `C=C[C@@H](C#CC#C[C@@H](CCCCCCCCC)NC(=O)c1ccco1)OC(C)=O` [Compound 69, (3S,8R)-8-(furan-2-carboxamido)heptadeca-1-en-4,6-diyn-3-yl acetate], the figure is 50 nM; as for `C=C[C@@H](C#CC#C[C@@H](CCCCCCCCC)NC(=O)c1cc(C)on1)OC(C)=O` [Compound 61, (3S,8R)-8-(5-methylisoxazole-3-carboxamido)heptadeca-1-en-4,6-diyn-3-yl acetate], 77 nM; as for `CCCCCCCCC[C@H](C#CC#C[C@@H](O)C1CC1)NCCCC` [Compound 74, (1S,6R)-6-(butylamino)-1-cyclopropylpentadeca-2,4-diyn-1-ol], 722 nM.
Still for that read-out and setting: the figure for `C=C[C@H](O)C#CC#C[C@@H](CCCCCCCCC)NC(C)=O` [Compound 59, N-((3S,8R)-3-hydroxyheptadeca-1-en-4,6-diyn-8-yl)acetamide] is 18 nM.
For the compound `C=C[C@@H](C#CC#C[C@@H](CCCCCCCCC)NC(=O)CCCOCc1ccccc1)OC(C)=O` [Compound 72, (3S,8R)-8-(4-(benzyloxy)butanamido)heptadeca-1-en-4,6-diyn-3-yl acetate], in the series on Leishmania donovani, the 50% inhibitory concentration (IC50) is 529 nM.
For the compound `C=C[C@H](O)C#CC#C[C@@H](CCCCCCCCC)NC(=O)OCC` [Compound 57, ethyl((3S,8R)-3-hydroxyheptadeca-1-en-4,6-diyn-8-yl)carbamate], the IC50 with Leishmania donovani was found to be 10 nM.
Regarding `C=C[C@H](O)C#CC#C[C@@H](CCCCCCCCC)NCCCC` [Compound 55, (3S,8R)-8-(butylamino)heptadeca-1-en-4,6-diyn-3-ol], the IC50 with Leishmania donovani stood at 3 nM.
Still for that read-out and setting: the figure for `C=C[C@@H](C#CC#CC(CCCCCCCCC)NC(=O)c1ccc(OC)cc1)OC(C)=O` (stereo in doubt) [Compound 42, (3S,8R)-8-(4-methoxybenzamido)heptadeca-1-en-4,6-diyn-3-yl acetate] is 165 nM; for `C=C[C@@H](C#CC#C[C@@H](CCCCCCCCC)NC(=O)c1ccc(F)cc1)OC(C)=O` [Compound 67, (3S,8R)-8-(4-fluorobenzamido)heptadeca-1-en-4,6-diyn-3-yl acetate] it is 72 nM; for `C=C[C@@H](C#CC#C[C@@H](CCCCCCCCC)NC(=O)c1cccc(Br)c1)OC(C)=O` [Compound 65, (3S,8R)-8-(3-bromobenzamido)heptadeca-1-en-4,6-diyn-3-yl acetate] it is 184 nM.
Turning to `CCCCCCCCCCCCCCCCOP(=O)([O-])OCC[N+](C)(C)C` [Miltefosine, reference compound], the “LDU mean ± SD” value in series [1] (group mean, n=4) stood at 87.0. The “% Reduction (Average) in liver parasitemia” value in series [1] (infected BALB/c mice) is 98% and 97.8%. Further, the “# of amastigotes per 200 nuclei” value in series [1] (liver, individual mice) is 22 and 13 and 8 and 24. Moreover, the LDU in series [1] (total liver parasitemia, individual mice) was 109.6 and 67.7 and 35.9 and 134.9. In series [2] (10 mg/kg i.p., individual mice, Table 4), the Body weight is 18.3 g and 18.0 g and 17.1 g and 20.0 g. Further, in series [2] (post-treatment, 10 mg/kg i.p., group mean), the “Mean body weight of mice Post-treatment” value is reported as 18.4 g. In addition, in series [2] (pre-treatment (baseline), group mean), the “Mean body weight of mice Pre-treatment” value is recorded as 18.4 g.
Regarding `C=C[C@@H](C#CC#C[C@@H](CCCCCCCCC)NC(=O)c1cccc(C(F)(F)F)c1)OC(C)=O` [Compound 68, (3S,8R)-8-(3-(trifluoromethyl)benzamido)heptadeca-1-en-4,6-diyn-3-yl acetate], the IC50 in the series on Leishmania donovani turned out to be 191 nM.
On the same count and under the same terms, as for `C=C[C@@H](C#CC#CC(CCCCCCCCC)NC(=O)c1ccc(Cl)c(Cl)c1)OC(C)=O` (stereo in doubt) [Compound 40, (3S,8R)-8-(3,4-dichlorobenzamido)heptadeca-1-en-4,6-diyn-3-yl acetate], the figure is 428 nM; as for `C=C[C@H](O)C#CC#C[C@@H](CCCCCCCCC)NCC` [Compound 78, (3S,8R)-8-(ethylamino)heptadeca-1-en-4,6-diyn-3-ol], 30 nM.
As to `C=C[C@@H](C#CC#CC(CCCCCCCCC)NC(=O)c1ccc(Cl)cc1)OC(C)=O` (stereo in doubt) [Compound 39, (3S,8R)-8-(4-chlorobenzamido)heptadeca-1-en-4,6-diyn-3-yl acetate], the concentration for half-maximal inhibition (IC50) with Leishmania donovani amounted to 112 nM.
For `C/C=C/[C@H](O)C#CC#C[C@@H](CCCCCCCCC)NCCCC` [Compound 75, (4S,9R,E)-9-(butylamino)octadeca-2-en-5,7-diyn-4-ol], the half-maximal inhibitory concentration (IC50) in the series on Leishmania donovani turned out to be 31 nM.
Still for that read-out and setting: as for `C=C[C@@H](C#CC#C[C@@H](CCCCCCCCC)NC(=O)c1ccccn1)OC(C)=O` [Compound 62, (3S,8R)-8-(picolinamido)heptadeca-1-en-4,6-diyn-3-yl acetate], the figure is 89 nM.
Same read-out and setting: the figure for `C=C[C@@H](C#CC#C[C@@H](CCCCCCCCC)NC(=O)c1cc(Cl)cc(Cl)c1)OC(C)=O` [Compound 70, (3S,8R)-8-(3,5-dichlorobenzamido)heptadeca-1-en-4,6-diyn-3-yl acetate] is 252 nM; for `C=C[C@@H](C#CC#C[C@@H](CCCCCCCCC)NC(=O)c1ccccc1Cl)OC(C)=O` [Compound 64, (3S,8R)-8-(2-chlorobenzamido)heptadeca-1-en-4,6-diyn-3-yl acetate] it is 109 nM.
Turning to `C=C[C@@H](C#CC#C[C@@H](CCCCCCCCC)NC(=O)c1cnccn1)OC(C)=O` [Compound 63, (3S,8R)-8-(pyrazine-2-carboxamido)heptadeca-1-en-4,6-diyn-3-yl acetate], the 50% inhibitory concentration (IC50) in the series on Leishmania donovani is 42 nM.
As for `CCCCCCCCC[C@H](C#CC#C[C@@H](O)c1ccc(OCC)cc1)NCCCC` [Compound 77, (1S,6R)-6-(butylamino)-1-(4-ethoxyphenyl)pentadeca-2,4-diyn-1-ol], in the series on Leishmania donovani, the concentration for half-maximal inhibition (IC50) turned out to be 443 nM.
Still for that read-out and setting: the figure for `C=C[C@@H](C#CC#CC(CCCCCCCCC)NC(=O)c1ccc(C)cc1)OC(C)=O` (stereo in doubt) [Compound 41, (3S,8R)-8-(4-methylbenzamido)heptadeca-1-en-4,6-diyn-3-yl acetate] is 126 nM; for `CCCCCCCCC[C@H](C#CC#C[C@@H](O)c1ccccc1)NCCCC` [Compound 76, (1S,6R)-6-(butylamino)-1-phenylpentadeca-2,4-diyn-1-ol] it is 113 nM; for `C=C[C@@H](C#CC#C[C@@H](CCCCCCCCC)NC(=O)c1cccc(C)c1)OC(C)=O` [Compound 66, (3S,8R)-8-(3-methylbenzamido)heptadeca-1-en-4,6-diyn-3-yl acetate] it is 120 nM.
The same measure, in the same setting: as for `C=C[C@H](O)C#CC#C[C@@H](CCCCCCCCC)NC(=O)c1ccccc1` [Compound 56, N-((3S,8R)-3-hydroxyheptadeca-1-en-4,6-diyn-8-yl)benzamide], the figure is 5 nM.
Same read-out and setting: the figure for `C=C[C@@H](C#CC#C[C@@H](CCCC1CCCCC1)NC(=O)c1ccccc1)OC(C)=O` [Compound 79, (3S,8R)-8-benzamido-11-cyclohexylundeca-1-en-4,6-diyn-3-yl acetate] is 27 nM; for `C=C[C@H](O)C#CC#C[C@@H](CCCCCCCCC)OC` [Compound 58, (3S,8R)-8-methoxyheptadeca-1-en-4,6-diyn-3-ol] it is 11 nM.
